Measured values published in US10077446B2, “Glucan-encapsulated siRNA for treating type 2 diabetes mellitus” (The United States of America, as represented by THE …, priority 2013, dated 2018).

Key:
CB2R mRNA = assay: siRNA specificity: CB2 receptor expression in peritoneal elicited macrophages (PEC); format: cell-based, rat; conditions: thioglycollate-induced PEC
Protocol: The specificity of each siRNA was measured in terms of knockdown of CB2 receptor expression, and a dose-response analysis of siRNA C was carried out.
(§1) Eight-week old ZDF rats were injected i.p. with 4% thioglycollate broth (Sigma-Aldrich). Five days following injection, the peritoneal cavity was washed with PBS and peritoneal fluid was filtered through a 70 μm diameter pore nylon mesh and centrifuged. The pellet was first treated with red blood cell lysis buffer and plated in DMEM supplemented with 10% fetal bovine serum (FBS), 50 μg/ml streptomycin and 50 units/ml penicillin. 24 hours after isolation peritoneal elicited cells (PEC) were treated with siRNA. Eighty, 160 or 240 pmoles of scrambled or CB1R siRNA (Dharmacon) was incubated with 3 nmoles EP in PBS for 15 min and added to 1×10^6 cells. 48 hours after treatment, mRNA were extracted, reversed transcribed and the degree of CB1R knock-down was analyzed by qPCR.
Total mRNA from the liver, pancreas and kidney were extracted with Trizol (Invitrogen), while total mRNA from cells was extracted using RNEASY™ Mini Kit (Qiagen). All extractions were followed by DNase I treatment (Invitrogen). Total mRNA was reverse-transcribed using the ISCRIPT™ cDNA kit (Bio-Rad). […] QUANTITECT™ Primer Assays were used to detect gene expression (Table 3, which lists the primers used for rat and mice (tissue)). […]

CB1R mRNA = assay: CB1R gene silencing by siRNA/EP in peritoneal elicited macrophages (PEC), qPCR; format: cell-based, rat
Protocol: as §1
Total mRNA from the liver, pancreas and kidney were extracted with Trizol (Invitrogen), while total mRNA from cells was extracted using RNEASY™ Mini Kit (Qiagen). All extractions were followed by DNase I treatment (Invitrogen). Total mRNA was reverse-transcribed using the ISCRIPT™ cDNA kit (Bio-Rad). Real-time PCR was performed as described previously (Jourdan, et al. 2010 Diabetes 59:926-934) in a 96-well plate using a STEPONEPLUS™ real time PCR system (Applied Biosystems). QUANTITECT™ Primer Assays were used to detect gene expression (Table 3, which lists the primers used for rat and mice (tissue)). […]

[1] = test system: Zucker diabetic fatty (ZDF) rats; assay: 10-day i.p. treatment of ZDF rats with glucan-encapsulated CB1R siRNA (GeRPs); format: in vivo, rat; conditions: daily i.p. GeRPs for 10 days
Protocol: Blood glucose levels were determined using the Elite glucometer (Bayer, Pittsburgh, Pa.). […] Plasma insulin was measured using the Ultra Sensitive rat Insulin ELISA kit (Crystal Chem Inc). Hemoglobin A1c was determined using the Rat Hemoglobin A1c (HbA1c) assay kit (Crystal Chem) and c-peptide was quantified by ELISA (C-peptide (rat) ELISA, ALPCO). Serum leptin and adiponectin were determined by ELISA (B-Bridge International). α-amylase, lipase, and uric acid concentrations were determined using commercially available colorimetric kits (BioAssay Systems). TNF-α and IL-1β were determined using TNF-α ELISA Kit (for Lysates) (RayBiotech, Inc.) and IL1β Rat ELISA Kit (Abeam), respectively.
Pancreas was fixed in 10% neutral buffered formalin (NBF), embedded in paraffin and sectioned ([…]) onto glass slides. […] For detection, secondary Ab coupled to FITC or PE were used (Table 2). Images were viewed with a Fluoview FV10i confocal microscope system (Olympus). Images were then analyzed using image J software and the presence or absence of co-localization was assessed by calculating the Pearson's coefficient.
Fluorescein (FITC)-labeled glucan shells were prepared as previously described (Tesz, et al. 2011 Biochemical Journal 436:351-362). To prepare a GeRP dose for one rat, 50 nmoles siRNA (Dharmacon) were incubated with 500 nmoles Endo-Porter (Gene Tools) in 30 mM sodium acetate pH 4.8 for 15 min at RT in a final volume of 200 μl. The siRNA/Endo-Porter solution was added to 10 mg ([…]) of FITC-glucan shells and then vortexed and incubated for 1 hour. The siRNA loaded GeRPs were then resuspended in 5 ml PBS and sonicated to ensure homogeneity of the GeRP preparation. […]
Total mRNA from the liver, pancreas and kidney were extracted with Trizol (Invitrogen), while total mRNA from cells was extracted using RNEASY™ Mini Kit (Qiagen). […] QUANTITECT™ Primer Assays were used to detect gene expression (Table 3, which lists the primers used for rat and mice (tissue)). […]

Substance: sense GCAUCAAGAGCACCGUUAAUU (SEQ ID NO: 9), antisense UUAACGGUGCUCUUGAUGCUU (SEQ ID NO: 10) (listed as RNA, chemistry not given here) [siRNA C, siRNA directed against rat CB1R, selected for in vivo use]
- CB2R mRNA (CB2R mRNA): no change
- degree of knockdown among the four siRNA sequences (CB1R mRNA; rat CB1R siRNAs A-D): greatest degree of knockdown
- suppression of CB1R mRNA (CB1R mRNA; thioglycollate-induced PEC, 48 h, dose-dependent, preliminary experiments): > 95%
- glycemia and insulinemia [1]: remained normoglycemic and hyperinsulinemic
- insulin expression and content in islets [1]: increased
- macrophage infiltration and expression of Nlrp3-ASC, IL-1β, IL-18, MCP-1 and CB1R [1]: decreased
